{"source": "patent US20250101017A1", "about": "“SALT CRYSTAL FORM AND FREE BASE CRYSTAL FORM OF KINASE INHIBITOR” (CYTOSINLAB THERAPEUTICS CO., LTD., priority 2022, published 2025)", "type_in_all_cases": "physicochemical", "key": {"[1]": {"assay": "Dynamic moisture adsorption (DVS), hygroscopicity", "procedure": "DSV pattern determination method: Dynamic moisture adsorption was performed using Intrinsic DVS. In step mode, the sample is subjected to loop testing at a relative humidity of 0-90%. The sample is analyzed at 10% RH. The dm/dt is set to 0.002 to achieve equilibrium between the sample and the room environment.\nApproximately 250 mg of API was weighed and added into a 4 ml glass vial, and 2.5 ml of ethyl acetate was added. The mixture was stirred overnight under magnetic stirring at 50° C., cooled to room temperature, and then filtered, and the obtained solid was dried in vacuum overnight in a 50° C. oven. The resulting solid was free base crystal form Form B. The free base crystal form Form B was subjected to various characterization."}, "[2]": {"assay": "Competitive pulping of API (free base Form A) and Form B in saturated DCM or water solution at 50° C., XRPD", "procedure": "A saturated solution of API (free base Form A) in DCM and water was prepared. Approximately 10 mg of API (free base Form A) and free base crystal form Form B was weighed respectively and added into a 4 ml glass bottle, and 1 mL of the saturated solution was added. […] The resulting solid was subjected to XRPD testing."}, "[3]": {"assay": "Solubility at 37° C. in buffer solutions with different pH (about 10 mg in 1 ml, 2 h and 24 h); filtrate concentration and pH, XRPD of remaining solid", "conditions": "for solubility at 2 h / solubility at 24 h: read-out: Solubility at 37° C.", "procedure": "Approximately 10 mg of malate crystal form VII-A and free base Form A were weighed separately, and 1 ml of buffer solutions with different pH were added to make the solution supersaturated, and the mixtures were stirred at 37° C. for 2 h and 24 hours. The samples were filtered, and the filtrates were measured to determine the concentration and pH value, and the remaining solid was subjected to XRPD determination. The specific results were as follows: […]"}, "[4]": {"assay": "Solid stability of crystal forms (80° C., light exposure, 25° C./60% RH, 40° C./75% RH); purity by liquid chromatography and XRPD of the solids", "procedure": "A certain amount of API and malate crystal form VII-A were weighed and added into a liquid phase vial, and a total of 9 parallels were prepared. The 9 parallels were placed separately in 80° C. (open); 25° C., 60% RH (open); 40° C., 75% RH (open); and light stability box closed). The stabilities under conditions of: 80° C. for one day, light exposure for 10 days, as well as 25° C., 60% RH and 40° C., 75% RH for one and two weeks were tested, and the XRPD of the solids were measured.\nA certain amount of crystal form B was weighed and added into a liquid phase vial, and a total of 9 parallels were prepared. 9 parallels were placed separately in 80° C.; 25° C., 60% RH, 40° C., 75% RH; and light stability boxe."}}, "note": "Where two headings read alike, the source gives them in different places.", "data": [{"smiles": "CCc1nc2c(N)ncc(-c3ccc(N4CCC(N5CCN(CC)CC5)CC4)c(OC)c3)c2nc1NC1CCOCC1", "note": "[Form B, 3-ethyl-8-(4-(4-(4-ethylpiperazin-1-yl)piperidin-1-yl)-3-methoxyphenyl)-N2-(tetrahydro-2H-pyran-4-yl) pyridino [3,4-b]pyrazine-2,5-diamine]", "values": [{"measurement": "crystal form before and after DVS testing", "setting": "[1]", "result": "did not change"}, {"measurement": "solid crystal form obtained by competitive pulping", "setting": "[2]; API and Form B together in DCM, 50° C., 3 days, XRPD", "result": "tended to approach Form L"}, {"measurement": "appearance after competitive pulping", "setting": "[2]; API and Form B together in DCM, after 5 days of beating", "result": "became oily"}, {"measurement": "crystal form obtained by competitive pulping", "setting": "[2]; API and Form B together in water, 50° C., 3 days, XRPD", "result": "a mixture of Form B and API"}, {"measurement": "XRPD results", "setting": "[2]; competitive pulping of API and Form B, DCM, 50° C., 3 days", "result": "Form K"}, {"measurement": "solubility compared to API", "setting": "[3]; 37° C., pH 6.8, pH 7.4, FaSSIF and water", "result": "improved compared to API"}, {"measurement": "solubility at 2 h", "setting": "[3]; FaSSIF, 37 °C, fassif, thermodynamic from solid, medium FaSSIF, 2 h", "result": 1190, "unit": "µg/mL"}, {"measurement": "solubility at 24 h", "setting": "[3]; FaSSIF, 37 °C, fassif, thermodynamic from solid, medium FaSSIF, 24 h", "result": 1400, "unit": "µg/mL"}, {"measurement": "solubility at 2 h", "setting": "[3]; FeSSIF, 37 °C, fessif, thermodynamic from solid, medium FeSSIF, 2 h", "result": "> 10000", "unit": "µg/mL"}, {"measurement": "solubility at 24 h", "setting": "[3]; FeSSIF, 37 °C, fessif, thermodynamic from solid, medium FeSSIF, 24 h", "result": "> 10000", "unit": "µg/mL"}, {"measurement": "solubility at 2 h", "setting": "[3]; SGF, 37 °C, simulated gastric fluid, thermodynamic from solid, medium SGF, 2 h", "result": "> 10000", "unit": "µg/mL"}, {"measurement": "solubility at 24 h", "setting": "[3]; SGF, 37 °C, simulated gastric fluid, thermodynamic from solid, medium SGF, 24 h", "result": "> 10000", "unit": "µg/mL"}, {"measurement": "solubility at 2 h", "setting": "[3]; buffer solution pH 6.8, 37 °C, pH 6.8, aqueous buffer, thermodynamic from solid, medium pH 6.8, 2 h", "result": 310, "unit": "µg/mL"}, {"measurement": "solubility at 24 h", "setting": "[3]; buffer solution pH 6.8, 37 °C, pH 6.8, aqueous buffer, thermodynamic from solid, medium pH 6.8, 24 h", "result": 250, "unit": "µg/mL"}, {"measurement": "solubility", "setting": "[3]; buffer solutions: pH 1.2, pH 3.0, pH 4.5, FeSSIF, SGF, 37 °C, aqueous buffer, thermodynamic from solid, 37° C., pH 1.2, pH 3.0, pH 4.5, FeSSIF, and SGF buffer", "result": "> 10000", "unit": "µg/mL"}, {"measurement": "Crystal form", "setting": "[3]; medium FaSSIF, XRPD of remaining solid", "result": "Form B"}, {"measurement": "pH (24 h)", "setting": "[3]; medium FaSSIF, filtrate, 37° C.", "result": 6.755}, {"measurement": "pH (24 h)", "setting": "[3]; medium FeSSIF, filtrate, 37° C.", "result": 5.724}, {"measurement": "Solubility at 37° C.", "setting": "[3]; medium H2O, 24 h", "result": 17.9, "unit": "µg/mL"}, {"measurement": "Crystal form", "setting": "[3]; medium H2O, XRPD of remaining solid", "result": "Form B"}, {"measurement": "pH (24 h)", "setting": "[3]; medium H2O, filtrate, 37° C.", "result": 7.197}, {"measurement": "pH (24 h)", "setting": "[3]; medium SGF, filtrate, 37° C.", "result": 1.910}, {"measurement": "Solubility at 37° C.", "setting": "[3]; medium pH 1.2, 2 h", "result": ">10000", "unit": "µg/mL"}, {"measurement": "Solubility at 37° C.", "setting": "[3]; medium pH 1.2, 24 h", "result": ">10000", "unit": "µg/mL"}, {"measurement": "pH (24 h)", "setting": "[3]; medium pH 1.2, filtrate, 37° C.", "result": 1.925}, {"measurement": "Solubility at 37° C.", "setting": "[3]; medium pH 3.0, 2 h", "result": ">10000", "unit": "µg/mL"}, {"measurement": "Solubility at 37° C.", "setting": "[3]; medium pH 3.0, 24 h", "result": ">10000", "unit": "µg/mL"}, {"measurement": "pH (24 h)", "setting": "[3]; medium pH 3.0, filtrate, 37° C.", "result": 4.892}, {"measurement": "Solubility at 37° C.", "setting": "[3]; medium pH 4.5, 2 h", "result": ">10000", "unit": "µg/mL"}, {"measurement": "Solubility at 37° C.", "setting": "[3]; medium pH 4.5, 24 h", "result": ">10000", "unit": "µg/mL"}, {"measurement": "pH (24 h)", "setting": "[3]; medium pH 4.5, filtrate, 37° C.", "result": 6.062}, {"measurement": "Crystal form", "setting": "[3]; medium pH 6.8, XRPD of remaining solid", "result": "Form B"}, {"measurement": "pH (24 h)", "setting": "[3]; medium pH 6.8, filtrate, 37° C.", "result": 6.813}, {"measurement": "Solubility at 37° C.", "setting": "[3]; medium pH 7.4, 2 h", "result": 47.2, "unit": "µg/mL"}, {"measurement": "Solubility at 37° C.", "setting": "[3]; medium pH 7.4, 24 h", "result": 39.9, "unit": "µg/mL"}, {"measurement": "Crystal form", "setting": "[3]; medium pH 7.4, XRPD of remaining solid", "result": "Form B"}, {"measurement": "pH (24 h)", "setting": "[3]; medium pH 7.4, filtrate, 37° C.", "result": 7.311}, {"measurement": "crystal form in the buffers", "setting": "[3]; remaining solids, XRPD", "result": "remained unchanged"}, {"measurement": "solubility at 2 h", "setting": "[3]; water, 37 °C, water, thermodynamic from solid, medium H2O, 2 h", "result": 39.5, "unit": "µg/mL"}, {"measurement": "Crystal form", "setting": "[4]; 25° C., 60% RH, 1 week", "result": "Unchanged"}, {"measurement": "Degradation", "setting": "[4]; 25° C., 60% RH, 1 week", "result": 0.00, "unit": "%"}, {"measurement": "Purity", "setting": "[4]; 25° C., 60% RH, 1 week", "result": 97.69, "unit": "%"}, {"measurement": "Crystal form", "setting": "[4]; 25° C., 60% RH, 2 weeks", "result": "Unchanged"}, {"measurement": "Degradation", "setting": "[4]; 25° C., 60% RH, 2 weeks", "result": 0.00, "unit": "%"}, {"measurement": "Purity", "setting": "[4]; 25° C., 60% RH, 2 weeks", "result": 97.67, "unit": "%"}, {"measurement": "Crystal form", "setting": "[4]; 40° C., 75% RH, 1 week", "result": "Unchanged"}, {"measurement": "Degradation", "setting": "[4]; 40° C., 75% RH, 1 week", "result": 0.00, "unit": "%"}, {"measurement": "Purity", "setting": "[4]; 40° C., 75% RH, 1 week", "result": 97.70, "unit": "%"}, {"measurement": "Crystal form", "setting": "[4]; 40° C., 75% RH, 2 weeks", "result": "Unchanged"}, {"measurement": "Degradation", "setting": "[4]; 40° C., 75% RH, 2 weeks", "result": 0.01, "unit": "%"}, {"measurement": "Purity", "setting": "[4]; 40° C., 75% RH, 2 weeks", "result": 97.66, "unit": "%"}, {"measurement": "physical and chemical stability", "setting": "[4]; 80° C. 1 day, light 10 days, 25° C./60% RH and 40° C./75% RH 1 and 2 weeks", "result": "good physical and chemical stability"}, {"measurement": "Crystal form", "setting": "[4]; 80° C., 1 day", "result": "Unchanged"}, {"measurement": "Degradation", "setting": "[4]; 80° C., 1 day", "result": 0.17, "unit": "%"}, {"measurement": "Purity", "setting": "[4]; 80° C., 1 day", "result": 97.50, "unit": "%"}, {"measurement": "Crystal form", "setting": "[4]; Light control, 10 days", "result": "Unchanged"}, {"measurement": "Degradation", "setting": "[4]; Light control, 10 days", "result": 0.00, "unit": "%"}, {"measurement": "Purity", "setting": "[4]; Light control, 10 days", "result": 97.67, "unit": "%"}, {"measurement": "Crystal form", "setting": "[4]; Light exposure, 10 days", "result": "Unchanged"}, {"measurement": "Degradation", "setting": "[4]; Light exposure, 10 days", "result": 0.04, "unit": "%"}, {"measurement": "Purity", "setting": "[4]; Light exposure, 10 days", "result": 97.63, "unit": "%"}, {"measurement": "Purity", "setting": "[4]; initial", "result": 97.67, "unit": "%"}]}]}
